In experiment [1] the test system is BT474 (human breast carcinoma). The experiment in a line: In vitro tumor cell proliferation assay (Cell Titer-Glo luminescent cell viability), BT474. The format is cell-based. Particulars: BT-474, 72 h, BT474 cells, 72 hours of drug exposure, ATP luminescence readout, read-out: IC50, anti-proliferative activity (inhibition of cell proliferation). The text has this:
In vitro Tumor Cell Proliferation Assay
The tumor cell proliferation assay used to test the compounds of the present invention involves a readout called Cell Titer-Glow® Luminescent Cell Viability Assay developed by Promega® (Cunningham, B A “A Growing Issue: Cell Proliferation Assays, Modern kits ease quantification of cell growth” The Scientist 2001, 15(13), 26, and Crouch, S P et al., “The use of ATP bioluminescence as a measure of cell proliferation and cytotoxicity” Journal of Immunological Methods 1993, 160, 81-88), that measures inhibition of cell proliferation. Generation of a luminescent signal corresponds to the amount of ATP present, which is directly proportional to the number of metabolically active (proliferating) cells.
A431cells (human epidermoid carcinoma, ATCC […]) and BT474 (human breast carcinoma, ATCC […]) were plated at a density of 2.5×10^3 cells/well in 96 well black-clear bottom tissue culture plates in RPMI media with 10% Fetal Bovine Serum and incubated at 37° C. Twenty-four hours later, test compounds are added at a final concentration range from as high […] to as low 64 pM depend on the activities of the tested compounds in serial dilutions at a final DMSO concentration of 0.1%. Cells were incubated for 72 hours at 37° C. in complete growth media after addition of the test compound. After 72 hours of drug exposure, the plates were equilibrated to room temperature for approximately 30 min. Then, using a Promega Cell Titer Glo Luminescent® assay kit, lysis buffer containing 100 microliters of the enzyme luciferase and its substrate, luciferin mixture, was added to each well. The plates were mixed for 2 min on orbital shaker to ensure cell lysis and incubated for 10 min at room temperature to stabilize luminescence signal. The samples were read on VICTOR 2 using Luminescence protocol, and analyzed with Analyze5 software to generate IC50 values.
A general note: Cellular ATP, detected with luciferase, serves as a proxy for viable cell number.

Experiment [2] has as its system A431 cells (human epidermoid carcinoma). The experiment can be described thus: In vitro tumor cell proliferation assay (Cell Titer-Glo luminescent cell viability), A431. Type of experiment: cell-based. The conditions noted are these: A-431, 72 h, 72 hours of drug exposure, ATP luminescence readout, read-out: IC50, anti-proliferative activity (inhibition of cell proliferation). An outline of the steps: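 CellTiter-Glo luminescence (ATP content of metabolically active cells) after 72 h compound exposure at 37° C gave IC50s.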

Data on 21 compounds can be found in US8207172B2 (Bayer Intellectual Property GmbH, priority 2004, dated 2012).

Counter-ions that a name gives are not always drawn. A value given as a limit tells only on which side of the number the result lay.

For the compound `Fc1cccc(COc2ccc(Nc3ncnc4sc5c(c34)CCc3nn(CCNCCN4CCOCC4)cc3-5)cc2Cl)c1` [Example 68, N-{3-chloro-4-[(3-fluorobenzyl)oxy]phenyl}-2-{2-[(2-morpholin-4-ylethyl)amino]ethyl}-4,5-dihydro-2H-pyrimido[5′,4′:4,5]thieno[2,3-e]indazol-6-amine], the IC50 in experiment [1] is at most 1 µM; in experiment [2], at most 5 µM.

`CCCn1ncc2c1CCc1c-2sc2ncnc(Nc3ccc(OCc4cccc(F)c4)c(Cl)c3)c12` [Example 131, N-{3-chloro-4-[(3-fluorobenzyl)oxy]phenyl}-3-propyl-4,5-dihydro-3H-pyrimido[5′,4′:4,5]thieno[2,3-e]indazol-6-amine trifluoroacetate]: the figures for the IC50 in experiment [1] and in experiment [2] were at most 1 µM and at most 50 µM, respectively.

Consider `CNCCn1cc2c(n1)CCc1c-2sc2ncnc(Nc3ccc(OCc4ccccn4)c(Cl)c3)c12` [Example 107, N-[3-chloro-4-(pyridin-2-ylmethoxy)phenyl]-2-[2-(methylamino)ethyl]-4,5-dihydro-2H-pyrimido[5′,4′:4,5]thieno[2,3-e]indazol-6-amine], for which the figures for the IC50 in experiment [1] and in experiment [2] were at most 1 µM and at most 5 µM, respectively.

Regarding `COCCn1cc2c(n1)CCc1c-2sc2ncnc(Nc3ccc(OCc4cccc(F)c4)c(Cl)c3)c12` [Example 312, N-{3-chloro-4-[(3-fluorobenzyl)oxy]phenyl}-2-(2-methoxyethyl)-4,5-dihydro-2H-pyrimido[5′,4′:4,5]thieno[2,3-e]indazol-6-amine], the IC50 in experiment [1] is at most 5 µM; in experiment [2], at most 50 µM.

For `Fc1cccc(COc2ccc(Nc3ncnc4sc5c(c34)CCc3c-5cnn3CCN3CCCC3)cc2Cl)c1` [Example 87, N-{3-chloro-4-[(3-fluorobenzyl)oxy]phenyl}-3-(2-pyrrolidin-1-ylethyl)-4,5-dihydro-3H-pyrimido[5′,4′:4,5]thieno[2,3-e]indazol-6-amine], the IC50 in experiment [1] is at most 1 µM; in experiment [2], at most 5 µM.

On to `Cc1ccc(Nc2ncnc3sc4c(c23)CCc2nn(CCN3CCN(C)CC3)cc2-4)cc1O` [Example 329, 2-methyl-5-({2-[2-(4-methylpiperazin-1-yl)ethyl]-4,5-dihydro-2H-pyrimido[5′,4′:4,5]thieno[2,3-e]indazol-6-yl}amino)phenol], for which the IC50 in experiment [1] and in experiment [2] was at most 5 µM each time.

Regarding `Cc1cccc(COc2ccc(Nc3ncnc4sc5c(c34)CCc3nn(CCN4CCN(C)CC4)cc3-5)cc2Cl)n1` [Example 117, N-{3-chloro-4-[(6-methylpyridin-2-yl)methoxy]phenyl}-2-[2-(4-methylpiperazin-1-yl)ethyl]-4,5-dihydro-2H-pyrimido[5′,4′:4,5]thieno[2,3-e]indazol 6-amine], the results for the IC50 in experiment [1] and in experiment [2] were at most 5 µM and at most 50 µM, respectively.

For `OCCn1ncc2c1CCc1c-2sc2ncnc(Nc3ccc4c(cnn4Cc4ccccc4)c3)c12` [Example 310, 2-{6-[(1-benzyl-1H-indazol-5-yl)amino]-4,5-dihydro-3H-pyrimido[5′,4′:4,5]thieno[2,3-e]indazol-3-yl}ethanol], the IC50 was at most 1 µM in experiment [1] and at most 5 µM in experiment [2].

With `O[C@H](CN1CCCC1)Cn1cc2c(n1)CCc1c-2sc2ncnc(Nc3ccc(OCc4cccc(F)c4)c(Cl)c3)c12` [Example 149, (2R)-1-[6-({3-chloro-4-[(3-fluorobenzyl)oxy]phenyl}amino)-4,5-dihydro-2H-pyrimido[5′,4′:4,5]thieno[2,3-e]indazol-2-yl]-3-pyrrolidin-1-ylpropan-2-ol trifluoroacetate (salt)], the IC50 is at most 1 µM in experiment [1] and at most 50 µM in experiment [2].

For the compound `CN(C)C1CCN(CCn2cc3c(n2)CCc2c-3sc3ncnc(Nc4ccc(F)c(Cl)c4)c23)C1` (stereo not drawn) [Example 15, N-(3-chloro-4-fluorophenyl)-2-{2-[3-(dimethylamino)pyrrolidin-1-yl]ethyl}-4,5-dihydro-2H-pyrimido[5′,4′:4,5]thieno[2,3-e]indazol-6-amine], the IC50 in experiment [1] is at most 1 µM; in experiment [2], at most 5 µM.

For `CN1CCN(C[C@@H](O)Cn2ncc3c2CCc2c-3sc3ncnc(Nc4ccc(OCc5cccc(F)c5)c(Cl)c4)c23)CC1` [Example 167, (2R)-1-[6-({3-chloro-4-[(3-fluorobenzyl)oxy]phenyl}amino)-4,5-dihydro-3H-pyrimido[5′,4′:4,5]thieno[2,3-e]indazol-3-yl]-3-(4-methylpiperazin-1-yl)propan-2-ol trifluoroacetate (salt)], the values for the IC50 in experiment [1] and in experiment [2] were at most 1 µM and at most 50 µM, respectively.

For the compound `CCCc1nccn1CCn1cc2c(n1)CCc1c-2sc2ncnc(Nc3ccc(F)c(Cl)c3)c12` [Example 41, N-(3-chloro-4-fluorophenyl)-2-[2-(2-propyl-1H-imidazol-1-yl)ethyl]-4,5-dihydro-2H-pyrimido[5′,4′:4,5]thieno[2,3-e]indazol-6-amine], the IC50 in experiment [1] and in experiment [2] was at most 5 µM in each case.

`O=C(Cn1ncc2c1CCc1c-2sc2ncnc(Nc3ccc(OCc4cccc(F)c4)c(Cl)c3)c12)NCCN1CCOCC1` [Example 197, 2-[6-({3-chloro-4-[(3-fluorobenzyl)oxy]phenyl}amino)-4,5-dihydro-3H-pyrimido[5′,4′:4,5]thieno[2,3-e]indazol-3-yl]-N-(2-morpholin-4-ylethyl)acetamide]: the IC50 is at most 1 µM in experiment [1] and at most 50 µM in experiment [2].

With `Fc1cccc(Cn2ncc3cc(Nc4ncnc5sc6c(c45)CCc4c-6cnn4CCN4CCNCC4)ccc32)c1` [Example 298, N-[1-(3-fluorobenzyl)-1H-indazol-5-yl]-3-(2-piperazin-1-ylethyl)-4,5-dihydro-3H-pyrimido[5′,4′:4,5]thieno[2,3-e]indazol-6-amine], the IC50 was at most 1 µM in experiment [1] and at most 5 µM in experiment [2].

Consider `CN(C)CCCCNCCn1cc2c(n1)CCc1c-2sc2ncnc(Nc3ccc(F)c(Cl)c3)c12` [Example 17, N′-(2-{6-[(3-chloro-4-fluorophenyl)amino]-4,5-dihydro-2H-pyrimido[5′,4′:4,5]thieno[2,3-e]indazol-2-yl}ethyl)-N,N-dimethylbutane-1,4-diamine], for which the IC50 in experiment [1] and in experiment [2] was at most 5 µM each time.

For `O=C(CN1CCOCC1)N1CCC(Cn2cc3c(n2)CCc2c-3sc3ncnc(Nc4ccc(OCc5cccc(F)c5)c(Cl)c4)c23)CC1` [Example 238, N-{3-chloro-4-[(3-fluorobenzyl)oxy]phenyl}-2-{[1-(morpholin-4-ylacetyl)piperidin-4-yl]methyl}-4,5-dihydro-2H-pyrimido[5′,4′:4,5]thieno[2,3-e]indazol-6-amine], the IC50 in experiment [1] was at most 1 µM; in experiment [2] it was at most 5 µM.

As for `CS(=O)(=O)CCNC(=O)Cn1cc2c(n1)CCc1c-2sc2ncnc(Nc3ccc(OCc4cccc(F)c4)c(Cl)c3)c12` [Example 180, 2-[6-({3-chloro-4-[(3-fluorobenzyl)oxy]phenyl}amino)-4,5-dihydro-2H-pyrimido[5′,4′:4,5]thieno[2,3-e]indazol-2-yl]-N-[2-(methylsulfonyl)ethyl]acetamide], the IC50 is at most 1 µM in experiment [1] and at most 50 µM in experiment [2].

`O=C(Cn1cc2c(n1)CCc1c-2sc2ncnc(Nc3ccc(OCc4cccc(F)c4)c(Cl)c3)c12)N1CCOCC1` [Example 179, N-{3-chloro-4-[(3-fluorobenzyl)oxy]phenyl}-2-(2-morpholin-4-yl-2-oxoethyl)-4,5-dihydro-2H-pyrimido[5′,4′:4,5]thieno[2,3-e]indazol-6-amine]: the IC50 in experiment [1] is at most 1 µM; in experiment [2], at most 5 µM.

For the compound `Cc1ccc(Oc2ccc(Nc3ncnc4sc5c(c34)CCc3nn(CCN4CCN(C)CC4)cc3-5)cc2C)cn1` [Example 49, N-{3-methyl-4-[(6-methylpyridin-3-yl)oxy]phenyl}-2-[2-(4-methylpiperazin-1-yl)ethyl]-4,5-dihydro-2H-pyrimido[5′,4′:4,5]thieno[2,3-e]indazol-6-amine], the IC50 in experiment [1] is at most 1 µM; in experiment [2], at most 5 µM.

As for `CN(C)C(=O)Cn1cc2c(n1)CCc1c-2sc2ncnc(Nc3ccc(OCc4cccc(F)c4)c(Cl)c3)c12` [Example 184, 2-[6-({3-chloro-4-[(3-fluorobenzyl)oxy]phenyl}amino)-4,5-dihydro-2H-pyrimido[5′,4′:4,5]thieno[2,3-e]indazol-2-yl]-N,N-dimethylacetamide], the IC50 in experiment [1] is at most 1 µM; in experiment [2], at most 5 µM.

Regarding `CS(=O)(=O)OCCn1cc2c(n1)CCc1c-2sc2ncnc(Nc3ccc(OCc4cccc(F)c4)c(Cl)c3)c12` [Example 57, 2-[6-({3-chloro-4-[(3-fluorobenzyl)oxy]phenyl}amino)-4,5-dihydro-2H-pyrimido[5′,4′:4,5]thieno[2,3-e]indazol-2-yl]ethyl methanesulfonate], the IC50 in experiment [1] was at most 1 µM; in experiment [2], at most 5 µM.
